Columns and labels:
[1] = molecular target: T1, EED protein (His6-tagged full-length) binding to H3K27me3 polypeptide (Homo sapiens, UniProt O75530); test: AlphaScreen evaluation of blocking the binding of EED to H3K27Me3; details: EED 60 nM, biotinylated H3K27me3 75 nM, 30 minutes incubation
T1 construct: His6-tagged full-length EED protein (441 amino acids)
Procedure, shortened: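 His6-tagged full-length EED (60 nM working stock) and biotin-H3K27me3 peptide aa 19–33 (75 nM working stock) incubated 30 min RT with 9-point 3-fold compound series in 25 mM HEPES pH 8.0, 50 mM NaCl, 0.015% Tween 20, 0.5% BSA. Ni-chelate acceptor and streptavidin donor beads (5 μg/mL each), 1 h dark; IC50 from dose-response fit. Biotin-(His)6 counterscreen checked signal interference.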

[2] = system: trimethylation level of histone H3K27 in G401 cells; test: ELISA (H3K27 trimethylation) analysis in G401 cells; type: cell-based; details: Homo sapiens, G-401, 72 hours, H3K27me3 standardized to H3
Procedure, shortened: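 Cells exposed 72 h to 10-point 3-fold dilutions, top 10 μM, 0.5% final DMSO. Acid-extracted histones assayed by ELISA (ECL) for H3K27me3, normalized to total H3 and to DMSO control; IC50 from dose-response fit.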

[3] = system: KARPAS-422 cells; test: Cell proliferation analysis, KARPAS-422, 13 days, CellTiter-Glo; type: cell-based; details: Homo sapiens, 312 h
Procedure, shortened: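 KARPAS-422 cells were treated with PRC2 inhibitors over 9 three-fold dilutions from 10 μM top (0.5% DMSO, duplicates) in RPMI-1640 with 15% FBS at 37 °C. Every 3–4 days cells were counted and reseeded at 1×10^4/well with fresh compound. Viability was read by CellTiter-Glo luminescence on day 13.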

T1 sequence (O75530 whole entry): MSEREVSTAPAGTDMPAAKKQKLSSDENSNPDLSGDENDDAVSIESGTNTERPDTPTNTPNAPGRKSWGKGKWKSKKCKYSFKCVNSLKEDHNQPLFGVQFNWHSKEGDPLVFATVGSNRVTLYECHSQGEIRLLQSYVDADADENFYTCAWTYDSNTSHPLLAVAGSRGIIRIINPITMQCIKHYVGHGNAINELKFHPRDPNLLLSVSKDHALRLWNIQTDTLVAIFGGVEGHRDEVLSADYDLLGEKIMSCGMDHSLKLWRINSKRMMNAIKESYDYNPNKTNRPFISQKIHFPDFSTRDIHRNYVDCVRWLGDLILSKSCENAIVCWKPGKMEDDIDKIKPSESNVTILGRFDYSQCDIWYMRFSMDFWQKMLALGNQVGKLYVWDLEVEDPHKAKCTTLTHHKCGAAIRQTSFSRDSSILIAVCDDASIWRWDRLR

IC50 [1] [µM]	IC50 [2] [µM]	IC50 [3] [µM]	Structure (SMILES)
0.0047	0.0032	0.0035	N#Cc1cnc2c(-c3cnc(NCc4c(F)ccc5c4CCO5)n4cnnc34)cccn12 [8-(5-(((5-fluoro-2,3-dihydrobenzofuran-4-yl)methyl)amino)-[1,2,4]triazolo[4,3-c]pyrimidin-8-yl)imidazo[1,2-a]pyridine-3-carbonitrile]
0.0035	0.0041	0.0037	NC(=O)c1cnc2c(-c3cnc(NCc4c(F)ccc5c4CCO5)n4cnnc34)cccn12 [8-(5-(((5-fluoro-2,3-dihydrobenzofuran-4-yl)methyl)amino)-[1,2,4]triazolo[4,3-c]pyrimidin-8-yl)imidazo[1,2-a]pyridine-3-carboxamide]
0.0044	0.0085	0.042	Fc1ccc2c(c1CNc1ncc(-c3cc(Cl)cn4ccnc34)c3nncn13)CCO2 [8-(6-chloroimidazo[1,2-a]pyridin-8-yl)-N-((5-fluoro-2,3-dihydrobenzofuran-4-yl)methyl)-[1,2,4]triazolo[4,3-c]pyrimidin-5-amine]
0.0045	0.0073	0.0077	Fc1ccc2c(c1CNc1ncc(-c3ccn4ncnc4c3)c3nncn13)[C@H]1C[C@H]1O2 [8-([1,2,4]triazolo[1,5-a]pyridin-7-yl)-N-(((1aR,6bR)-5-fluoro-1a,6b-dihydro-1H-cyclopropa[b]benzofuran-6-yl)methyl)-[1,2,4]triazolo[4,3-c]pyrimidin-5-amine]
0.004	0.0007	0.0019	Fc1ccc2c(c1CNc1ncc(-c3cccn4ncnc34)c3nncn13)[C@H]1C[C@H]1O2 [8-([1,2,4]triazolo[1,5-a]pyridin-8-yl)-N-(((1aR,6bR)-5-fluoro-1a,6b-dihydro-1H-cyclopropa[b]benzofuran-6-yl)methyl)-[1,2,4]triazolo[4,3-c]pyrimidin-5-amine]
0.0042	0.0064	0.0431	Fc1ccc2c(c1CNc1ncc(-c3ccc4nncn4c3)c3nncn13)[C@H]1C[C@H]1O2 [8-([1,2,4]triazolo[4,3-a]pyridin-6-yl)-N-(((1aR,6bR)-5-fluoro-1a,6b-dihydro-1H-cyclopropa[b]benzofuran-6-yl)methyl)-[1,2,4]triazolo[4,3-c]pyrimidin-5-amine]
0.0095	0.0074	0.0048	Fc1ccc2c(c1CNc1ncc(-c3cccn4cnnc34)c3nncn13)[C@H]1C[C@H]1O2 [8-([1,2,4]triazolo[4,3-a]pyridin-8-yl)-N-(((1aR,6bR)-5-fluoro-1a,6b-dihydro-1H-cyclopropa[b]benzofuran-6-yl)methyl)-[1,2,4]triazolo[4,3-c]pyrimidin-5-amine]
0.0049	0.013	0.0136	Fc1ccc2c(c1CNc1ncc(-c3cccc4ncoc34)c3nncn13)CCO2 [8-(benzo[d]oxazol-7-yl)-N-((5-fluoro-2,3-dihydrobenzofuran-4-yl)methyl)-[1,2,4]triazolo[4,3-c]pyrimidin-5-amine]
0.0083	0.0014	0.0033	Cc1ccc(-c2cnc(NCc3c(F)ccc4c3CCO4)n3cnnc23)c2nc(CO)cn12 [(8-(5-(((5-fluoro-2,3-dihydrobenzofuran-4-yl)methyl)amino)-[1,2,4]triazolo[4,3-c]pyrimidin-8-yl)-5-methylimidazo[1,2-a]pyridin-2-yl)methanol]
0.021	0.0052	0.0086	OCc1ccc(-c2cnc(NCc3c(F)ccc4c3CCO4)n3cnnc23)c2nccn12 [(8-(5-(((5-fluoro-2,3-dihydrobenzofuran-4-yl)methyl)amino)-[1,2,4]triazolo[4,3-c]pyrimidin-8-yl)imidazo[1,2-a]pyridin-5-yl)methanol]
0.0023	0.006	0.004	CCOC(=O)c1cnc2c(-c3cnc(NCc4c(F)ccc5c4CCO5)n4cnnc34)cccn12 [Ethyl 8-(5-(((5-fluoro-2,3-dihydrobenzofuran-4-yl)methyl)amino)-[1,2,4]triazolo[4,3-c]pyrimidin-8-yl)imidazo[1,2-a]pyridine-3-carboxylate]

From patent US12583870B2, “Azaheteroaryl compound and application thereof” (SHANGHAI BLUERAY BIOPHARMA CO., LTD., priority 2019, dated 2026)
